Source: patent US11969402B2, “Compositions and methods for skin rejuvenation” (THE JOHNS HOPKINS UNIVERSITY, priority 2019, dated 2024)

Tests used:
[1] = test system: Wound Induced Hair Neogenesis (WIHN); assay: Wound Induced Hair Neogenesis (WIHN), regenerated hair follicles counted by CSLM; format: in vivo, mouse
Protocol: (§1) Wound Induced Hair Neogenesis (WIHN). All experiments were followed with the present inventors' WIHN protocol^1,9. Briefly, hair was shaved and a 1.2 cm^2 full-thickness skin on the backs of 21-day old (telogen) male and female mice was removed by sterile scissors. A single treatment of RA (30 μl) (0.1 μg per mouse) (Millipore Sigma, R2625) and BMS493 (30 μl) (0.1 μg per mouse) (Cayman Chemical, #17418) was applied topically onto open wound on WD1 of Tlr3^−/− and WT mice, respectively. Poly (I:C) (50 μl) (5 μg per mouse) (Invivogen, tlrl-pic) was injected under the healed scab on WD3 of WT mice as described before^9,34. On WD20-24, numbers of regenerated hair follicles were visualized and quantified in the re-epithelialized skin by non-invasive confocal scanning laser microscopy (CSLM) (Caliber I.D., VIVASCOPE 1500) as published^1,9. As a vehicle (Control), ethanol (EtOH), dimethylsulfoxide (DMSO), or PBS was treated for RA, BMS493, and Poly (I:C), respectively.

[2] = test system: wounded skin; assay: Retinoid levels in mouse skin (LC-MS/MS, HPLC-UV); format: in vivo; conditions: for ROL and RE in wounded skin: WT and Tlr3−/− mice
Protocol: as §1
Tissue preparation from wounded mice. Wild type (C57BL/6J and 6NJ) and Tlr3^−/− mice were wounded as did in WIHN experiments. On PWD11 when wounds are closed, the center and edge of the wound was separated by scissors. Skin samples were immediately frozen and saved in liquid nitrogen for further analysis.
Determination of Retinoid Levels. For in vitro samples, human scalp keratinocytes were incubated with 0.5 μg per ml of Poly (I:C) for 48 hrs or siRNAs-transfected cells were incubated with 0.1 μg per ml of Poly (I:C) for 48 hrs. For in vivo samples, skin was analyzed from wild-type and Tlr3^−/− unwounded and wounded skin where wound regions (center and edge area) were cut by scalpel. Human skin was analyzed for retinoids with and without CO2 laser treatment as described. All samples were frozen at collection and stored at −80° C. until extraction. For in vitro experiments, media and cell pellets were analyzed separately. For in vivo experiments, tissues were homogenized in saline. Extraction of retinoids was performed under yellow lights using a two-step liquid-liquid extraction that has been described in detail previously using 4,4-dimethyl-RA as an internal standard for RA and retinyl acetate as an internal standard for retinol and total retinyl ester^43-46. For the extraction of retinoids, 1 to 3 ml of 0.025 M KOH in ethanol was added to tissue homogenates (in vivo) or cell culture (in vitro) samples. Then 10 ml hexane (for in vivo tissue sample) or 5 ml hexane (for in vitro cell culture sample) was added to the aqueous ethanol phase. The samples were vortexed and centrifuged for 1 to 3 min at 1000 rpm in a Dynac centrifuge (Becton Dickinson) to facilitate phase separation and pellet precipitated protein. The hexane (top) phase containing nonpolar retinoids (ROL and RE) was removed. 4 M HCl (60-180 μl) was added to the remaining aqueous ethanol phase, samples were vortexed, and then polar retinoids (RA) were removed by extraction with a second 5-10 ml aliquot of hexane as described above. Organic hexane phases were evaporated under nitrogen while heating at approximately 25 to 30° C. in a water bath (model N-EVAP 112, Organomation Associates, Berlin, MA, USA). All samples were resuspended in 60 μl acetonitrile. Only glass containers, pipettes, and syringes were used to handle retinoids.
Levels of RA were determined by liquid chromatography-multistage tandem mass spectrometry (LC-MRM^3) which is an LC-MS/MS method utilizing two distinct fragmentation events for enhanced selectivity^43. RA was measured using a Shimadzu Prominence UFLC XR liquid chromatography system (Shimadzu, Columbia, MD) coupled to an AB Sciex 5500 or 6500+ QTRAP hybrid triple quadrupole mass spectrometer (AB Sciex, Framingham, MA) using atmospheric pressure chemical ionization (APCI) operated in positive ion mode as previously described^43. […]

[3] = test system: human scalp keratinocytes; assay: Western blot / immunostaining of ALDH1A3, KRT15, KRT19 in human keratinocytes; format: cell-based; conditions: for ALDH1A3 protein: human keratinocytes, western blot
Protocol: BMS493 treatment. BMS493 pan-RARs antagonist (1 μM) was pre-treated into keratinocytes for an hour and cells were incubated with RA (0.1 μM and 0.5 μM for human and mouse keratinocytes, respectively) or Poly (I:C) (0.1 μg per ml for both human and mouse keratinocytes) for 48 hrs. At the end of the experiment, cells were harvested for RNA and protein extraction to do further analysis including qRT-PCR and western blot.
Western blot analysis. Human and mouse keratinocytes were disrupted in M-PER lysis buffer (Thermo Fisher Scientific, #78501) containing protease inhibitors (Thermo Fisher Scientific, #87786) using ultrasonic homogenizer (20% power with 5 times every 2 seconds) to extract proteins. Then, protein concentrations were determined by BCA method (Thermo Fisher Scientific, #23225). Western blot procedures were followed by the protocol of NuPAGE system (Thermo Fisher Scientific). Briefly, 20 μg of protein samples were loaded for electrophoresis and transferred to polyvinylidene di-fluoride (PVDF) membrane (Bio-Rad, Hercules, CA). After blocking for at least an hour in 5% non-fat dry milk, the membrane was incubated with primary antibodies with appropriate dilutions (Table 2) at 4° C. overnight and followed by incubation with secondary antibodies for 1 hour at room temperature. Protein amounts were normalized to rabbit polyclonal anti-human β-actin antibody (1:1,000 dilution) (Cell Signaling Technology). Finally, proteins were visualized using SuperSignal West Pico PLUS chemiluminescent substrate kit (Thermo Fisher Scientific, #34577) and saved as image files using ChemiDoc XRS^+ (Bio-Rad). The signal intensity of protein was quantified using Image Lab software (Bio-Rad). Original images of representative blots were provided in the Source data file.
Immunofluorescence. For tissues, frozen-sections of mouse skin samples were stained with primary antibodies with appropriate dilution at 4° C. overnight, followed by incubation with goat anti-rabbit IgG labeled with Alexa Flour® 488 (Life Technologies) and 594 (Life Technologies) for 1 hour at room temperature. For cells, keratinocytes (3×10^5 cells) plated on cover-slip were fixed with 4% Paraformaldehyde (PFA) for 10 min, permeabilized in PBS including 0.5% Triton X-100 for 15 min at room temperature. After washing with PBS 3 times, cells were stained with primary antibodies overnight at 4° C., followed by incubation with goat anti-rabbit or mouse IgG labeled with Alexa Flour® 488 for 1 hour at room temperature. Cell nuclei were visualized by mounting medium including DAPI (Vector Laboratories, Burlingame, CA, H-1200). Fluorescence images were observed by fluorescence microscopy (Leica microsystems), taken pictures with ×100 (low magnification) and ×200 (high magnification), and saved as image files.

Row | Compound | hair follicle regeneration (WIHN) ([1]; Tlr3−/− mice, topical 0.1 μg per mouse on WD1) | WIHN ([1]; WT mice, supraphysiologic doses of RA) | tissue RA levels prior to morphogenesis ([2]; Tlr3−/− mice, exogenous RA) | ROL and RE in wounded skin ([2]; RA vs ethanol) | ALDH1A3 protein [3] | hair follicle regeneration (WIHN) ([1]; MDA5−/− mice, similar to WT) | new hair follicle formation (WIHN) ([1]; WT mice, single injection 5 μg per mouse on WD3) | amount of RA during wound healing ([2]; Tlr3−/− mice) | ROL and RE in wounded skin ([2]; Poly (I:C) vs PBS) | amount of RA during wound healing ([2]; WT mice) | RA in center of the wound before morphogenesis ([2]; wild type mice, PWD11, center vs edge, not in Tlr3−/− mice) | ALDH1A3, KRT15 and KRT19 protein expression ([3]; human keratinocytes following Poly (I:C) stimulation)
1 | CC1=C(/C=C/C(C)=C/C=C/C(C)=C/C(=O)O)C(C)(C)CCC1 [RA, all-trans-retinoic acid] | modestly increased | do not modify | measurable increases | not significant | robustly increased |  |  |  |  |  |  | 
2 | Polyinosinic-polycytidylic acid [Poly (I:C)] |  |  |  |  | robustly increased | induces hair follicle regeneration | stimulates new hair follicle formation | much less so | not significant | substantially increased | accumulates more RA | upregulated
